Measurements from PMC11441021, “Novel hybrids of 1,2,3-triazole-benzoxazole: design, synthesis, and assessment of DprE1 enzyme inhibitors using fluorometric assay and computational analysis” (Journal of Enzyme Inhibition and Medicinal Chemistry, 2024).
Values after ≈ are worked out from the molar mass of the structure shown. Values joined by “and” are separate entries in the source; they are usually repeats but may differ in a detail not shown here. Equal values may be shown once.

Columns and labels:
[1] = tested on: mouse fibroblast 3T3 cells; test: MTT cytotoxicity assay on mouse fibroblast 3T3 cells; format: cell-based; conditions: for IC50: NIH3T3, MTT assay, read-out: 3T3 cell IC50; for Selectivity index: IC50 (μg/mL)/MIC (μg/mL), 3T3 cells vs Mtb H37Rv
[2] = tested on: M. tuberculosis H37Rv strain; test: Resazurin microtiter assay (REMA), MIC against Mtb H37Rv; format: cell-based, Mycobacterium tuberculosis; conditions: MTB H37Rv (ATCC 27294), 7 days incubation, text calls it MIC; for MIC50: Mycobacterium tuberculosis, ATCC 27294 / H37Rv, 168 h
DprE1 = DprE1 (Mycobacterium tuberculosis, UniProt P9WJF1); test: DprE1 inhibition (resazurin redox indicator, fluorometric) assay; format: biochemical; conditions: purified DprE1, GGPR substrate
Experimental: For the identification and validation of the biological target for this new series of 1,2,3-triazole-linked benzoxazoles, compounds displaying antimycobacterial activity below 6 μg/mL and showcasing diverse side chains were assessed against the purified DprE1 protein (Table 1). The assessment of the compounds’ ability to inhibit DprE1 activity was conducted through an in-vitro assay. This involved purified DprE1 protein, geranylgeranyl-phosphoryl-β-d-ribose (GGPR) substrate, and resazurin as a redox indicator. The synthesised molecules were tested for their impact on DprE1 activity within this experimental setup. The initial rates of activity, characterised by increasing concentrations of the compound, were measured and compared to the control compound TCA-1. The half maximal inhibitory concentration (IC50) was then calculated for each synthesised compound, quantitatively assessing their inhibitory effect. […] The promising results prompted us to delve deeper into these compounds through initial assessments of their druggability profiles and validation via computational studies. This approach aims to enhance our understanding of the structural features involved in the inhibition mechanism of the DprE1 enzyme, utilising docking and molecular dynamics (MD) simulation studies.
A redox indicator assay was conducted following a previously described protocol, utilising the reduction of resazurin to its fluorescent form, resorufin. In this assay, the DprE1 cofactor FAD undergoes reduction to FADH2, while the C-2 hydroxyl group of the substrate GGPR is oxidised to form a keto-intermediate known as geranylgeranylphosphoryl-β-d-2′-keto-erythro-penta-furanose (GGPX)[11]^,[40]. The inhibition of DprE1 was assessed using an activity assay, with the half maximal inhibitory concentration (IC50) determined for each tested compound. Intermediate plates of compounds were prepared in V-bottomed 96-well plates, where the compounds were serially diluted twofold in DMSO. Subsequently, 1 µL of each compound dilution was pipetted in triplicate into Greiner black-bottomed 384 plates. The master mix (19 µL), comprising 5 µM DprE1, 50 mM Hepes pH 7.5, 100 mM NaCl, and 100 µM resazurin, was added to the compounds in the plate. The assay was initiated with 5 µL of 1 mM GGPR using the pump on the POLARstar Omega plate reader (BMG Labtech). Emission was measured at 590 nm with excitation at 530 nm at 37 °C[41]^. IC50 values were calculated using Prism GraphPad, fitting the data to a four-parameter dose–response curve. The initial rates of activity were used for the calculations, and fluorescence units were converted to µM resazurin reduced by referencing a resorufin standard curve.

[3] = Mus musculus, mouse fibroblast 3T3 cells, cytotoxicity

DprE1, sequence (P9WJF1 whole entry): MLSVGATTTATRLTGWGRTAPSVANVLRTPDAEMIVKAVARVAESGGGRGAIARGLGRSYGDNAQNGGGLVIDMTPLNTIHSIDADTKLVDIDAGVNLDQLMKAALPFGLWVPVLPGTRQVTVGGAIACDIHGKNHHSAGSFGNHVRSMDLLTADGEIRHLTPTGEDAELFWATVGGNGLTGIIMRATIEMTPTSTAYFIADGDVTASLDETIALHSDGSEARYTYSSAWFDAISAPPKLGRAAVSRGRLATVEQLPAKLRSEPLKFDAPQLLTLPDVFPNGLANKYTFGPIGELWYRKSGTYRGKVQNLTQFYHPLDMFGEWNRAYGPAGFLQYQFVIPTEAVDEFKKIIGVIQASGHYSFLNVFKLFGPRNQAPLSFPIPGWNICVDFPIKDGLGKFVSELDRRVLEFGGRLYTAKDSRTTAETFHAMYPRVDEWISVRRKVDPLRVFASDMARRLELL

SMILES | IC50 [1, 3] | MIC50 [2] | IC50 (DprE1) | melting point | other results
O=c1[nH]cc(F)c(=O)[nH]1 [5-Fluorouracil, reference compound] | 53.7 µg/mL (≈ 413 µM) |  |  |  | inhibition at 50 µg/mL ([1]; Mus musculus, NIH3T3, MTT assay, 50 μg/mL, read-out: percentage inhibition of 3T3 cells): > 42%
O=C(CC(=O)Nc1ccccc1)Cn1cc(CSc2nc3ccccc3o2)nn1 [BOK-1, 4–(4-((Benzo[d]oxazol-2-ylthio)methyl)-1H-1,2,3-triazol-1-yl)-3-oxo-N-phenyl butanamide] | 118 µg/mL (≈ 291 µM) | ≤ 6.25 µg/mL | 5.2 ± 0.6 µM |  | Selectivity index [1]: 37.07
Cc1ccccc1NC(=O)CC(=O)Cn1cc(CSc2nc3ccccc3o2)nn1 [BOK-2, 4–(4-((Benzo[d]oxazol-2-ylthio)methyl)-1H-1,2,3-triazol-1-yl)-3-oxo-N-(o-tolyl) butanamide] | 104 µg/mL (≈ 247 µM) |  | 2 µM and 2.2 µM |  | Selectivity index [1]: 57.77; 3T3 cell IC50 ([1]; MTT assay, mouse fibroblast 3T3 cells, cytotoxicity): 103.92 µg/mL
O=C(CC(=O)Nc1ccccc1F)Cn1cc(CSc2nc3ccccc3o2)nn1 [BOK-3, 4–(4-((Benzo[d]oxazol-2-ylthio)methyl)-1H-1,2,3-triazol-1-yl)-N-(2-fluorophenyl)-3-oxobutanamide] | 112 µg/mL (≈ 263 µM) |  | 3 ± 0.6 µM |  | Selectivity index [1]: 46.75
O=C(CC(=O)Nc1cccc(Cl)c1)Cn1cc(CSc2nc3ccccc3o2)nn1 [BOK-4, 4–(4-((Benzo[d]oxazol-2-ylthio)methyl)-1H-1,2,3-triazol-1-yl)-N-(3-chlorophenyl)-3-oxobutanamide] |  | 3.7 µg/mL (≈ 8.37 µM) |  | 165 to 169 °C | Mtb H37Rv MIC50 [2]: 6.9 µg/mL
Cc1ccc(NC(=O)CC(=O)Cn2cc(CSc3nc4ccccc4o3)nn2)cc1 [BOK-5, 4–(4-((Benzo[d]oxazol-2-ylthio)methyl)-1H-1,2,3-triazol-1-yl)-3-oxo-N-(p-tolyl) butanamide] |  | 11.6 µg/mL (≈ 27.5 µM) |  | 175 to 179 °C | 
O=C(CC(=O)Nc1ccc(C(F)(F)F)cc1)Cn1cc(CSc2nc3ccccc3o2)nn1 [BOK-6, 4–(4-((Benzo[d]oxazol-2-ylthio)methyl)-1H-1,2,3-triazol-1-yl)-3-oxo-N-(4-(trifluoromethyl)phenyl)butanamide] |  | 39.6 µg/mL (≈ 83.3 µM) |  | 185 to 189 °C | 
O=C(CC(=O)Nc1ccc(Cl)cc1)Cn1cc(CSc2nc3ccccc3o2)nn1 [BOK-7, 4–(4-((Benzo[d]oxazol-2-ylthio)methyl)-1H-1,2,3-triazol-1-yl)-N-(4-chlorophenyl)-3-oxo butanamide] |  | 6.9 µg/mL (≈ 15.6 µM) |  | 171 to 174 °C | Mtb H37Rv MIC50 [2]: 6.7 µg/mL
O=C(CC(=O)Nc1ccc(Br)cc1)Cn1cc(CSc2nc3ccccc3o2)nn1 [BOK-8, 4–(4-((Benzo[d]oxazol-2-ylthio)methyl)-1H-1,2,3-triazol-1-yl)-N-(4-bromophenyl)-3-oxo butanamide] |  | 44.1 µg/mL (≈ 90.7 µM) |  | 210 to 214 °C | 
COc1ccc(NC(=O)CC(=O)Cn2cc(CSc3nc4ccccc4o3)nn2)cc1 [BOK-9, 4–(4-((Benzo[d]oxazol-2-ylthio)methyl)-1H-1,2,3-triazol-1-yl)-N-(4-methoxyphenyl)-3-oxo butanamide] |  | 10.6 µg/mL (≈ 24.2 µM) |  | 169 to 172 °C | 
CCOc1ccc(NC(=O)CC(=O)Cn2cc(CSc3nc4ccccc4o3)nn2)cc1 [BOK-10, 4–(4-((Benzo[d]oxazol-2-ylthio)methyl)-1H-1,2,3-triazol-1-yl)-N-(4-ethoxyphenyl)-3-oxo butanamide] |  | 42.6 µg/mL (≈ 94.4 µM) |  | 175 to 179 °C | 
O=C(Cn1cc(CSc2nc3ccccc3o2)nn1)c1ccccc1 [BOP-1, 2–(4-((Benzo[d]oxazol-2-ylthio)methyl)-1H-1,2,3-triazol-1-yl)-1-phenylethan-1-one] | 51.7 µg/mL (≈ 148 µM) | ≤ 6.25 µg/mL | 3.3 ± 1 µM |  | Selectivity index [1]: 8.76
COc1ccc(C(=O)Cn2cc(CSc3nc4ccccc4o3)nn2)cc1 [BOP-2, 2–(4-((Benzo[d]oxazol-2-ylthio)methyl)-1H-1,2,3-triazol-1-yl)-1–(4-methoxyphenyl)ethan-1-one] |  | 19.1 µg/mL (≈ 50.1 µM) |  | 148 to 152 °C | 
Cc1ccc(C(=O)Cn2cc(CSc3nc4ccccc4o3)nn2)cc1 [BOP-3, 2–(4-((Benzo[d]oxazol-2-ylthio)methyl)-1H-1,2,3-triazol-1-yl)-1-(p-tolyl)ethan-1-one] |  | 20.5 µg/mL (≈ 56.3 µM) |  | 142 to 146 °C | 
O=C(Cn1cc(CSc2nc3ccccc3o2)nn1)c1ccc(F)cc1 [BOP-4, 2–(4-((Benzo[d]oxazol-2-ylthio)methyl)-1H-1,2,3-triazol-1-yl)-1–(4-fluorophenyl)ethan-1-one] | 55.8 µg/mL (≈ 151 µM) | ≤ 6.25 µg/mL | 3.1 ± 0.7 µM |  | Selectivity index [1]: 11.62
O=C(Cn1cc(CSc2nc3ccccc3o2)nn1)c1ccc([N+](=O)[O-])cc1 [BOP-5, 2–(4-((Benzo[d]oxazol-2-ylthio)methyl)-1H-1,2,3-triazol-1-yl)-1–(4-nitrophenyl)ethan-1-one] |  | 32.3 µg/mL (≈ 81.7 µM) |  | 142 to 146 °C | 
CO[C@H]1/C=C/O[C@@]2(C)Oc3c(C)c(O)c4c(O)c(c(/C=N/N5CCN(C)CC5)c(O)c4c3C2=O)NC(=O)/C(C)=C\C=C\[C@H](C)[C@H](O)[C@@H](C)[C@@H](O)[C@@H](C)[C@H](OC(C)=O)[C@@H]1C [Rifampicin, reference compound] |  | < 0.004 µg/mL |  |  | 
CCOC(=O)NC(=O)c1ccsc1NC(=O)c1nc2ccccc2s1 [TCA-1, reference compound] |  |  | 3 ± 0.2 µM |  | 
